IC50 data for 42 compounds are collected here from US12012398B2, “Bicyclic compounds as androgen receptor modulators” (NIDO BIOSCIENCES, INC., priority 2021, dated 2024).

Structures can show the parent of a compound that is named as a salt. Bounds are passed on as bounds.

In this test the test system is LNCaP cells expressing ARR2PB-FireflyLuc and CMV-RenillaLuc. Nature of the test: LNCaP ARR2PB-FireflyLuc reporter assay, antagonist mode.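 Further: IC50 bins in nM.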 Format: cell-based. Particulars: Homo sapiens, LNCaP, 48 h, +0.5 nM DHT, 48 h at 37° C., read-out: LNCap Antagonist Archive: IC50. As to the method: LNCaP cells expressing ARR2PB-FireflyLuc and CMV-RenillaLuc were treated with indicated concentrations of test compounds, enzalutamide (negative control), or DHT (positive control)+/−0.5 nM DHT for 48 h at 37° C. Fluorescent signals were read with the ImageXpress Micro Confocal System. Remaining activity (antagonist mode) was calculated as % Remaining Activity=100×[(ReadSample−LCave)/(HCave−LCave)] where HC is cells treated with 0.5 nM DHT only and LC is cells treated with 10 uM enzalutamide+0.5 nM DHT. Activation (agonist mode) was calculated as % Activation=100×[(ReadSample−LCave)/(HCave−LCave)] where HO is cells treated with 1 uM DHT and LC is cells treated with DMSO. Dose response curves and IC50 values were calculated using non-linear regression analysis in XLfit.
The designation “A” indicates an IC50 value of >10 μM, “B” indicates an IC50 value between 1 μM and 10 μM; “C” indicates an IC50 value between 100 nM and 1 μM; and “D” indicates an IC50 value of less than 100 nM.
For orientation: Reporter assays use an easily measured gene product as a stand-in for the process of interest.
As a reminder, the IC50 is the concentration at which inhibition is half-maximal. Regarding `C[C@@H]1COC[C@H]1NC(=O)c1cc2cccc(Cl)c2[nH]1` [Example 64, 7-chloro-N-[(3S,4S)-4-methyloxolan-3-yl]-1H-indole-2-carboxamide], the IC50 was in the range of 1 to 10 µM.
`O=C(NC12CC(C1)C2)c1[nH]c2c(Cl)cccc2c1-c1ccccc1` [Example 108, N-[bicyclo[1.1.1]pentan-1-yl]-7-chloro-3-phenyl-1H-indole-2-carboxamide]: the IC50 was 1 to 10 µM.
In the case of `CCn1c(C(=O)N(C)C23CC(F)(C2)C3)cc2ccnc(Cl)c21` [Example 153, 7-chloro-1-ethyl-N-(3-fluorobicyclo[1.1.1]pentan-1-yl)-N-methyl-1H-pyrrolo[2,3-c]pyridine-2-carboxamide] it was under 0.1 µM.
Take `O=C(NC12CC(F)(C1)C2)c1cc2ccnc(Cl)c2n1CC1CC1` [Example 113, 7-chloro-1-(cyclopropylmethyl)-N-{3-fluorobicyclo[1.1.1]pentan-1-yl}pyrrolo[2,3-c]pyridine-2-carboxamide]: the IC50 lay within 0.1 to 1 µM.
`O=C(NC12CC(F)(C1)C2)c1cc2ccnc(Cl)c2[nH]1` [Example 99, 7-chloro-N-[3-fluorobicyclo[1.1.1]pentan-1-yl]-1H-pyrrolo[2,3-c]pyridine-2-carboxamide]: the IC50 is 1 to 10 µM.
For the compound `CN(C(=O)c1cc2cccc(Cl)c2[nH]1)C1CC(C)(C)NC(C)(C)C1` [Example 75, 7-chloro-N-methyl-N-(2,2,6,6-tetramethylpiperidin-4-yl)-1H-indole-2-carboxamide], the IC50 was over 10 µM.
In the case of `CN(C(=O)c1cc2ccc(F)cc2[nH]1)c1cccc(C#N)c1` [Example 16, N-(3-cyanophenyl)-6-fluoro-N-methyl-1H-indole-2-carboxamide] it was over 10 µM; in that of `CN(C(=O)c1cc2cccc(C#N)c2[nH]1)C1CCCC1` [Example 20, 7-cyano-N-cyclopentyl-N-methyl-1H-indole-2-carboxamide], 1 to 10 µM.
Consider `N#Cc1ccc(NC(=O)c2cc3cccc(Cl)c3[nH]2)cc1` [Example 68, 7-chloro-N-(4-cyanophenyl)-1H-indole-2-carboxamide], for which the IC50 was in the range of 1 to 10 µM.
As to `CN(C(=O)c1cc2cccc(Cl)c2[nH]1)C1CCOC(C)(C)C1` (stereo not drawn) [Example 74, 7-chloro-N-(2,2-dimethyloxan-4-yl)-N-methyl-1H-indole-2-carboxamide], the IC50 was in the range of 1 to 10 µM.
As to `CN(C(=O)c1cc2ccc(F)cc2o1)c1ccccn1` [Example 38, 6-fluoro-N-methyl-N-(pyridin-2-yl)-1-benzofuran-2-carboxamide], the IC50 is over 10 µM.
Take `COCCN(C(=O)c1cc2ccc(F)cc2[nH]1)c1ccc(Cl)cn1` [Example 160]: the IC50 lay within 1 to 10 µM.
In the case of `CN(C(=O)c1cc2cccc(Cl)c2[nH]1)C1CCCOC1` (stereo not drawn) [Example 73, 7-chloro-N-methyl-N-(oxan-3-yl)-1H-indole-2-carboxamide], the IC50 is over 10 µM.
For `N#Cc1ccc(N(C(=O)c2cc3cccc(Cl)c3[nH]2)C2CCOC2)cc1` (stereo not drawn) [Example 83, 7-chloro-N-(4-cyanophenyl)-N-(oxolan-3-yl)-1H-indole-2-carboxamide], the IC50 is under 0.1 µM.
For `CN(C(=O)c1cc2cccc(Cl)c2[nH]1)C1CCNCC1` [Example 43, 7-chloro-N-methyl-N-(piperidin-4-yl)-1H-indole-2-carboxamide], the IC50 was over 10 µM.
`CN(C(=O)c1cc2cccc(Cl)c2[nH]1)C1CCCNC1` (stereo not drawn) [Example 42, 7-chloro-N-methyl-N-(piperidin-3-yl)-1H-indole-2-carboxamide]: the IC50 was over 10 µM.
Consider `CN(C(=O)c1cc2ccc(F)cc2[nH]1)c1ccc(C#N)cc1` [Example 17, N-(4-cyanophenyl)-6-fluoro-N-methyl-1H-indole-2-carboxamide], for which the IC50 lay in the range of 1 to 10 µM.
Turning to `CN(C(=O)c1[nH]c2ccccc2c1Cl)c1ccccc1` [Example 22, 3-chloro-N-methyl-N-phenyl-1H-indole-2-carboxamide], the IC50 is over 10 µM.
`Cn1c(C(=O)NC23CC(C2)C3)cc2ccc(F)cc21` [Example 157, N-(bicyclo[1.1.1]pentan-1-yl)-6-fluoro-1-methyl-1H-indole-2-carboxamide]: the IC50 lay within 1 to 10 µM.
In the case of `NCCN(CC1CC1)C(=O)c1cc2cccc(Cl)c2[nH]1` [Example 47, N-(2-aminoethyl)-7-chloro-N-(cyclopropylmethyl)-1H-indole-2-carboxamide] it was over 10 µM; in that of `NCCn1c(C(=O)NC23CC(F)(C2)C3)cc2ccnc(Cl)c21` [Example 137, 1-(2-aminoethyl)-7-chloro-N-{3-fluorobicyclo[1.1.1]pentan-1-yl}pyrrolo[2,3-c]pyridine-2-carboxamide], over 10 µM; in that of `CN(C(=O)c1cc2ccc(F)cc2[nH]1)c1cccnc1` [Example 14, 6-fluoro-N-methyl-N-(pyridin-3-yl)-1H-indole-2-carboxamide], over 10 µM.
As for `Cn1c(C(=O)NC23CC(C2)C3)cc2ccncc21` [Example 156, N-(bicyclo[1.1.1]pentan-1-yl)-1-methyl-1H-pyrrolo[2,3-c]pyridine-2-carboxamide], the IC50 lay in the range of 0.1 to 1 µM.
Turning to `CN(C(=O)c1cc2cccc(Cl)c2o1)c1ccccn1` [Example 37, 7-chloro-N-methyl-N-(pyridin-2-yl)-1-benzofuran-2-carboxamide], the IC50 was over 10 µM.
Turning to `C[C@H]1COC[C@H]1NC(=O)c1cc2cccc(Cl)c2[nH]1` [Example 65, 7-chloro-N-[(3S,4R)-4-methyloxolan-3-yl]-1H-indole-2-carboxamide], the IC50 was in the range of 1 to 10 µM.
With `COCCn1c(C(=O)NC23CC(F)(C2)C3)cc2ccnc(Cl)c21` [Example 139, 7-chloro-N-{3-fluorobicyclo[1.1.1]pentan-1-yl}-1-(2-methoxyethyl)pyrrolo[2,3-c]pyridine-2-carboxamide], the IC50 was 1 to 10 µM.
In the case of `COc1nccc2cc(C(=O)NC34CC(F)(C3)C4)n(C)c12` [Example 118, N-{3-fluorobicyclo[1.1.1]pentan-1-yl}-7-methoxy-1-methylpyrrolo[2,3-c]pyridine-2-carboxamide], the IC50 was in the range of 1 to 10 µM.
As to `O=C(NC12CC(F)(C1)C2)c1cc2ccnc(OC3CC3)c2[nH]1` [Example 122, 7-cyclopropoxy-N-{3-fluorobicyclo[1.1.1]pentan-1-yl}-1H-pyrrolo[2,3-c]pyridine-2-carboxamide], the IC50 is over 10 µM.
In the case of `COCCNC(=O)c1cc2ccc(F)cc2n1-c1ccc(Cl)cn1` [Example 53, 1-(5-chloropyridin-2-yl)-6-fluoro-N-(2-methoxyethyl)-1H-indole-2-carboxamide] it was over 10 µM.
Consider `CCn1c(C(=O)NC23CC(F)(C2)C3)cc2ccnc(Cl)c21` [Example 111, 7-chloro-1-ethyl-N-[3-fluorobicyclo[1.1.1]pentan-1-yl]pyrrolo[2,3-c]pyridine-2-carboxamide], for which the IC50 was under 0.1 µM.
In the case of `COCCN(C(=O)c1cc2ccc(F)cc2[nH]1)c1ncccn1` [Example 161] it was 1 to 10 µM; in that of `CN(CC1CCCC1)C(=O)c1cc2cccc(Cl)c2[nH]1` [Example 70, 7-Chloro-N-(cyclopentylmethyl)-N-methyl-1H-indole-2-carboxamide], 1 to 10 µM.
With `Cn1c(C(=O)NC23CC(F)(C2)C3)cc2ccnc(C#N)c21` [Example 131, 7-cyano-N-{3-fluorobicyclo[1.1.1]pentan-1-yl}-1-methylpyrrolo[2,3-c]pyridine-2-carboxamide], the IC50 was 0.1 to 1 µM.
Regarding `CN(C(=O)c1cc2cccc(Cl)c2[nH]1)c1ccccc1` [Example 19, 7-chloro-N-methyl-N-phenyl-1H-indole-2-carboxamide], the IC50 lay in the range of 0.1 to 1 µM.
`O=C(NC1CCCC1)c1cc2cccc(Cl)c2[nH]1` [Example 69, 7-chloro-N-cyclopentyl-1H-indole-2-carboxamide]: the IC50 is over 10 µM.
For `Cn1c(C(=O)NC23CC(F)(C2)C3)cc2ccnc(C3CC3)c21` [Example 120, 7-cyclopropyl-N-{3-fluorobicyclo[1.1.1]pentan-1-yl}-1-methylpyrrolo[2,3-c]pyridine-2-carboxamide], the IC50 was in the range of 1 to 10 µM.
`CN(C(=O)c1cc2cccc(Cl)c2[nH]1)C1CCNC1` (stereo not drawn) [Example 40, 7-chloro-N-methyl-N-(pyrrolidin-3-yl)-1H-indole-2-carboxamide trifluoroacetic acid salt]: the IC50 is over 10 µM.
In the case of `CC(C)N(Cc1cnco1)C(=O)c1cc2cccc(C#N)c2[nH]1` [Example 66, 7-cyano-N-isopropyl-N-(1,3-oxazol-5-ylmethyl)-1H-indole-2-carboxamide] it was 1 to 10 µM; in that of `Cc1nccc2cc(C(=O)NC34CC(F)(C3)C4)n(C)c12` [Example 130, N-{3-fluorobicyclo[1.1.1]pentan-1-yl}-1,7-dimethylpyrrolo[2,3-c]pyridine-2-carboxamide], 1 to 10 µM; in that of `CN(C)c1nccc2cc(C(=O)NC34CC(F)(C3)C4)n(C)c12` [Example 125, 7-(dimethylamino)-N-{3-fluorobicyclo[1.1.1]pentan-1-yl}-1-methylpyrrolo[2,3-c]pyridine-2-carboxamide], 1 to 10 µM.
As for `Cc1c(C(=O)NC23CC(C2)C3)[nH]c2c(Cl)cccc12` [Example 102, N-[bicyclo[1.1.1]pentan-1-yl]-7-chloro-3-methyl-1H-indole-2-carboxamide], the IC50 was 0.1 to 1 µM.
Take `C[C@H]1OCC[C@@H]1NC(=O)c1cc2cccc(Cl)c2[nH]1` [Example 61, 7-chloro-N-[(2R,3S)-2-methyloxolan-3-yl]-1H-indole-2-carboxamide]: the IC50 is 0.1 to 1 µM.
